Data on seven compounds can be found in PMC9230136 (Pharmaceutics, 2022).

The structures appear in SMILES notation. Like-named read-outs stand apart in the source and are kept apart here.

Data set [1] deals with HeLa. To be noted: cited from earlier work.
The test system of data set [2] is tubulin. To be noted: cited from earlier work.
Data set [3] relates to A549. To be noted: cited from earlier work.
The subject of data set [4] is HeLa cells. In words: ROS production (H2DCFDA). In kind it is cell-based, human. To be noted: 10, 50 or 100 nM; 24 h. The method, then:
(§1) The mitochondrial potential was evaluated in HeLa cells by flow cytometry using the cell membrane permeable cationic dye 5,5′,6,6′-tetrachloro-1,1′,3,3′-tetraethyl-imidacarbocyanine iodide (JC-1) (Molecular Probes) as described previously. The production of ROS was measured in HeLa cells by flow cytometry using 2′,7′-dichlorodihydrofluorescein diacetate (H2DCFDA) (Molecular Probes) as described previously.

In data set [5] the test system is quiescent PBLs. In words: Cytotoxicity in human PBLs, resting. Format: cell-based. To be noted: PBL not stimulated with PHA, 72 h, read-out: IC50 PBLresting. An excerpt: (§2) Human PBLs were obtained from healthy donors by separation on a Lymphoprep^TM (Serumwerk Bernburg AG) gradient and were used for the evaluation of the cytotoxic potential of compounds under study in normal human cells. Buffy coats were obtained from the Blood Transfusion Service, Azienda Ospedaliera of Padova and provided at this institution for research purposes without identifier. The samples were not obtained specifically for this study, and for this reason ethical approval was not required. Informed consent was obtained from blood donors according to Italian law no. 219 (21 October 2005). Data were treated by the Blood Transfusion Service according to Italian law on personal data management “Codice in materia di protezione dati personali” (Testo Unico D.L. Giugno 30, 2003 196).
(§3) After extensive washing with saline solution (BioConcept, Hank’s Buffered Saline Solution), quiescent PBLs were resuspended (1.0 × 10^6 cells/mL) in RPMI-1640 medium supplemented with 10% fetal bovine serum. Cytotoxicity evaluations were conducted also in cultures of proliferating PBLs, stimulated with […] PHA (Irvine Scientific). Both resting and proliferating lymphocytes were seeded in 96-well plates and maintained overnight at 37 °C in a humidified 5% CO2 incubator. Serial (5-fold) dilutions of the tested compounds were added, and viability was determined 72 h later by the resazurin viability assay as described above.

Data set [6] concerns Bovine brain tubulin. The data set is described as follows: Inhibition of tubulin polymerization. In kind it is biochemical. The method, then: (§4) Bovine brain tubulin was purified as described previously. To evaluate the effects of the compounds on tubulin assembly in vitro [35], varying concentrations were preincubated with 10 μM tubulin in 0.8 M monosodium glutamate (pH 6.6) at 30 °C and the reaction mixtures then cooled to 0 °C. After addition of GTP, the mixtures were transferred to 0 °C cuvettes in Beckman Coulter (Brea, CA, USA) DU-7400/DU-7500 recording spectrophotometers equipped with electronic temperature controllers and warmed to 30 °C, and the assembly of tubulin was observed turbidimetrically. […] Inhibition of colchicine binding to tubulin was measured as described before, except that the reaction mixtures contained 0.5 μM tubulin and 5 μM each of [^3H]colchicine and test compound. Only one DEAE-cellulose filter was used per sample, and filtration was by gravity.

The test system of data set [7] is A549, MDA-MB-231, HeLa, HT-29 and Jurkat cancer cell lines. The data set is described as follows: Antiproliferative activity over the panel of cancer cell lines. In kind it is cell-based, human. The protocol:
Colon adenocarcinoma (HT-29) and T-cell leukemia (Jurkat) cells were grown in RPMI-1640 medium (Gibco, Milano, Italy). Promyelocytic leukemia cells (HL-60), non-small cell lung carcinoma (A549), cervix carcinoma (HeLa) and breast adenocarcinoma (MDA-MB-231) cells were grown in DMEM medium (Gibco, Milano, Italy). Both media were supplemented with 115 units/mL of penicillin G (Gibco, Milano, Italy), 115 μg/mL of streptomycin (Invitrogen, Milano, Italy) and 10% fetal bovine serum (Invitrogen, Milano, Italy). All the cell lines used were purchased from the American Type Culture Collection (ATCC, Manassas, VA, USA). Stock solutions (10 mM) of the compounds were obtained by dissolving them in DMSO.
The cells were seeded in 96-well plates at the appropriate density for each cell line. After 24 h, the cells were treated by performing serial 5-fold dilutions of the tested compounds starting from a concentration of 10 μM. All experimental conditions were tested in triplicate for statistical analysis. The plates were incubated for 72 h at 37 °C in a humidified 5% CO2 atmosphere. At the end of the incubation period, 10 μL of 100 μg/mL resazurin solution was added to each well; then, the plate was re-incubated for 3–4 h. The fluorescence of the wells in each plate was monitored using a Spark 10 M spectrophotometer (Tecan Group Ltd., Mannedorf, Switzerland) with a 535 nm excitation wavelength and a 600 nm emission wavelength.

In data set [8] the test system is HeLa cells. In words: Apoptosis by annexin-V-FITC/PI flow cytometry. In kind it is cell-based, human. The method, then:
Surface exposure of phosphatidylserine on apoptotic cells was measured by flow cytometry with a Beckman Coulter Cytomics FC500 (Beckman Coulter Italia, Milano, Italy) by adding annexin-V conjugated to fluorescein isothiocyanate (FITC) to cells according to the manufacturer’s instructions (Annexin-V Fluos, Roche Diagnostic, Monza, Italy). Simultaneously, the cells were stained with PI. Excitation was set at 488 nm, and the emission filters were at 525 and 585 nm, respectively, for FITC and PI.

Data set [9] has as its system HT-29. In words: Antiproliferative assay (resazurin, 72 h). Format: cell-based, human. The procedure, abridged: (§5)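 The highest dose is 10 μM, diluted in five-fold steps, and each condition is run in triplicate. HT-29 uses RPMI-1640 medium; MDA-MB-231, A549 and HeLa use DMEM.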
(Resazurin is reduced to fluorescent resorufin, in cell work by metabolically active cells.)

The test system of data set [10] is MDA-MB-231. In words: Antiproliferative assay (resazurin, 72 h). To be noted: mean ± SE, 72 h. Format: cell-based, human. The procedure, abridged:
as §5

In data set [11] the test system is A549. In words: Antiproliferative assay (resazurin, 72 h). In kind it is cell-based, human. The gist of the method: as §5
The test system of data set [12] is HeLa. The data set is described as follows: Antiproliferative assay (resazurin, 72 h). In kind it is cell-based, human. The procedure, abridged:
as §5

Data set [13] concerns Jurkat. The data set is described as follows: Antiproliferative assay (resazurin, 72 h). Format: cell-based, human. The procedure, abridged: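 Compounds dissolved in DMSO as 10 mM stocks were applied to seeded Jurkat cells using 5-fold serial dilutions from 10 μM, with each condition run in triplicate. Following 72 h incubation, 10 μL of 100 μg/mL resazurin was added for 3–4 h, and fluorescence was measured at 535 nm excitation and 600 nm emission.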

In data set [14] the test system is PBL stimulated with PHA. In words: Cytotoxicity in human PBLs stimulated with PHA. To be noted: 72 h, read-out: IC50 PBLPHA. In kind it is cell-based.
From the text: as §2, §3

Data set [15] concerns HeLa cells. In words: Cell cycle analysis (PI, flow cytometry). Format: cell-based, human. To be noted: 24 h; for cells arrested in the G2/M phase: 100 nM. The method, then:
HeLa cells were seeded at 100,000 cells per well on 6-well tissue culture plates. After 24 h, cells were treated with different test compound concentrations or DMSO for another 24 h. Cells were then fixed and stained with propidium iodide (PI). The fluorescence intensity of 10,000 single-cell events was measured with a Beckman Coulter Cytomics FC500 instrument (Beckman Coulter Italia, Milano, Italy) and the data were analyzed with MultiCycle for Windows software from Phoenix Flow Systems (San Diego, CA, USA).
In general terms: In flow cytometry, cells or beads pass a laser one at a time.

The test system of data set [16] is Bovine brain tubulin. In words: Inhibition of [3H]colchicine binding to tubulin. To be noted: tubulin 0.5 µM, [3H]colchicine 5 µM, compound 5 µM. The method, then:
as §4

Data set [17] relates to HeLa cells. In words: EdU cell proliferation assay. To be noted: 25 or 50 nM; 24 h. Format: cell-based, human. The protocol: HeLa cells were seeded in a 6-well plate and, after a 24 h incubation, were treated with the desired compounds as indicated in the Biological Results and Discussion section. Cells were re-incubated for one day and then labeled with EdU (10 μM) for 3 h under cell culture conditions. Cells were harvested by centrifugation before proceeding with the fixation step using 3.7% formaldehyde. Next, permeabilization with 0.5% Triton X-100 was performed. The reaction cocktail was prepared and added to each well (100 μL/well) following the manufacturer’s instructions (EdU-Click 488, base click, Sigma-Aldrich. Milano Italy), and the plate was incubated at room temperature for 30 min in the dark. Cells were washed 2 times with phosphate-buffered saline (PBS) before reading samples with a Beckman Coulter Cytomics FC500 instrument (λex/λem = 496/516 nm).

The test system of data set [18] is HeLa cells. The data set is described as follows: Mitochondrial membrane potential (JC-1). In kind it is cell-based, human. To be noted: Figure 8A representative plot; concentration not given. The method, then: as §1
Where [19] appears, read: tubulin at 10 μM, read-out: Tubulin Assembly IC50 ± SD.
Setting [20] is: read-out: IC50 (compared with 8u on A549).

The term IC50 denotes the concentration needed to halve the response being measured. Take `COc1cc(-c2nc3nc(C)c(C(C)=O)c(-c4ccc([N+](=O)[O-])cc4)n3n2)cc(OC)c1OC` [Compound 4]: the IC50 is 750 nM in data set [1] and 1020 nM in data set [3] (read-out: IC50 A549). Moreover, the “inhibition of tubulin assembly” value in data set [2] (at 10 μM) is 40%.

Turning to `COc1ccc(-c2c(C(C)=O)c(C)nc3nc(-c4cc(OC)c(OC)c(OC)c4)nn23)cc1[N+](=O)[O-]` [Compound 5], the IC50 in data set [1] is 10000 nM; in data set [2] (read-out: IC50 antitubulin activity), 9900 nM; in data set [3] (read-out: IC50 A549) it was 16000 nM.

Turning to `COc1ccc(-c2nc3nc(C)c(C(C)=O)c(-c4cc(OC)c(OC)c(OC)c4)n3n2)cc1O` [Compound 6], the 50% inhibitory concentration (IC50) in data set [1] is 60 nM. For the same compound, the “fold more powerful than CA-4, tubulin polymerization” value in data set [2] is on record as 3 fold.

Take `COc1cc(Nc2cc(C)nc3nc(NCCCc4ccccc4)nn23)cc(OC)c1OC` [Compound 7ad]: in data set [4], the ROS production entry is given as “significantly increased ROS production in a dose-dependent manner”. Also, the half-maximal inhibitory concentration (IC50) in [5] was greater than 10000 nM; in [6] (setting [19]), 380 ± 60 nM; in data set [7] (four of the five cell lines, read-out: IC50 values against four of the five cell lines), less than 1000 nM; in data set [9] it was 142 nM; in [9] (Table 1, mean ± SE, 72 h) it was 140 ± 11 nM; in data set [10] (Table 1), 91 ± 8 nM. Further, the IC50 in [11] (Table 1, mean ± SE) is 190 ± 20 nM; in data set [12] (Table 1, mean ± SE), 67 ± 7 nM; in data set [13], greater than 2000 nM; in data set [13] (Table 1, mean ± SE, 72 h) it was 2720 ± 130 nM; in data set [14], greater than 10000 nM. Moreover, in data set [8], the “concentration from which apoptosis was induced” value was 50 nM. Also, in [15], the “cells arrested in the G2/M phase” value is listed as “more than 70%”. The “concentration at which G2/M arrest began” value in [15] was found to be 25 nM. For the same compound, in data set [16], the “Colchicine Binding % Inhibition ± SD” value is 55 ± 3%. In addition, the “EdU incorporation / cell proliferation” value in data set [17] is reported as “effective in reducing HeLa cell proliferation”. The “Monomers (%) (monomeric JC-1)” value in data set [18] was found to be 33.4%.

The term melting point denotes the temperature, or range, at which the solid turns liquid. In turn, `Cc1cc(Nc2ccc(F)c(Cl)c2)n2nc(NCCCc3ccccc3)nc2n1` [Compound 8r, N^7-(3-Chloro-4-fluorophenyl)-5-methyl-N^2-(3-phenylpropyl)-[1,2,4]triazolo [1,5-a]pyrimidine-2,7-diamine] gave a melting point of 168 to 170 °C. Further, the ROS production entry in data set [4] is “significantly increased ROS production in a dose-dependent manner”. Further, the IC50 in data set [5] (Homo sapiens) was greater than 10000 nM. Besides, in data set [6], the “fold more potent than CA-4, tubulin polymerization” value is listed as “about 2 fold”. In addition, the half-inhibitory concentration (IC50) in data set [6] (read-out: IC50 tubulin polymerization) is 390 nM. Also, the half-maximal inhibitory concentration (IC50) in data set [6] (setting [19]) was 520 ± 60 nM. Moreover, in data set [7] (Homo sapiens, mean over the five cancer cell lines, read-out: mean IC50 (antiproliferative activity)), the IC50 was found to be 101 nM. The “concentration from which apoptosis was induced” value in [8] is listed as 50 nM. The same compound registered an IC50 in [9] (Homo sapiens, HT-29, Table 2, mean ± SE, 72 h) of 58 ± 10 nM. The compound further showed a half-maximal inhibitory concentration (IC50) in data set [10] (Homo sapiens, MDA-MB-231, Table 2) of 98 ± 20 nM. The same compound gave an IC50 in data set [11] (Homo sapiens, A549, Table 2, mean ± SE) of 81 ± 2 nM. Also, it took 35 nM to reach half-maximal inhibition in data set [12] (Homo sapiens, HeLa, Table 2, mean ± SE) (IC50). In data set [13] (Homo sapiens, Jurkat, Table 2, mean ± SE, 72 h), the IC50 amounted to 230 ± 20 nM. Also, the IC50 in data set [14] (Homo sapiens) is greater than 10000 nM. Further, in data set [15], the “cells arrested in the G2/M phase” value is given as “more than 70%” and the “concentration at which G2/M arrest began” value was 25 nM. The “Colchicine Binding % Inhibition ± SD” value in data set [16] turned out to be 87 ± 0.8%. For the same compound, the “EdU incorporation / cell proliferation” value in data set [17] is on record as “effective in reducing HeLa cell proliferation”. Further, the “Monomers (%) (monomeric JC-1)” value in data set [18] is reported as 16.6%.

With `COc1cccc2c1C(=O)c1c(O)c3c(c(O)c1C2=O)C[C@@](O)(C(=O)CO)C[C@@H]3O[C@H]1C[C@H](N)[C@H](O)[C@H](C)O1` [doxorubicin], the IC50 in data set [3] (setting [20]) is 11600 nM.

For the compound `CC(=O)O[C@H]1C(=O)[C@@]2(C)[C@H]([C@H](OC(=O)c3ccccc3)[C@]3(O)C[C@H](OC(=O)[C@H](O)[C@@H](NC(=O)c4ccccc4)c4ccccc4)C(C)=C1C3(C)C)[C@]1(OC(C)=O)CO[C@@H]1C[C@@H]2O` [paclitaxel], in [3] (setting [20]), the IC50 is 3.5 nM.
